In PubChem BioAssay AID2060885 (Molecular Pharmacology Branch, DTP, NCI, 2025):

System: NCI-H23 complex spheroids with HUVEC/MSC, viability
Experiment: Anticancer human tumor NCI-H23 cell line growth inhibition [RAS];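 further: spheroids exposed to compound for 7 days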;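 on viability, T/C: 100% = DMSO vehicle control viability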
Conditions: for IC50: curve of first compound; for viability, T/C: stronger effect = lower value
Summary of the method: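 Multi-cell-type spheroids: tumor cells plus HUVEC endothelial cells and mesenchymal stem cells. RAS-pathway inhibitors were combined with targeted agents, each dosed in half-log steps down from clinical Cmax, or from 10 microM when Cmax was unknown.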

[1] = second compound 0.00316 µM, first compound 0.000949 µM
[2] = second compound 0.00316 µM, first compound 0.003 µM
[3] = second compound 0.00316 µM, first compound 0.00949 µM
[4] = second compound 0.00316 µM, first compound 0.03 µM
[5] = second compound 0.00316 µM, first compound 0.0949 µM
[6] = second compound 0.00316 µM, first compound 0.3 µM
[7] = second compound 0.01 µM, first compound 0.000949 µM
[8] = second compound 0.01 µM, first compound 0.003 µM
[9] = second compound 0.01 µM, first compound 0.00949 µM
[10] = second compound 0.01 µM, first compound 0.03 µM
[11] = second compound 0.01 µM, first compound 0.0949 µM
[12] = second compound 0.01 µM, first compound 0.3 µM
[13] = second compound 0.0316 µM, first compound 0.000949 µM
[14] = second compound 0.0316 µM, first compound 0.003 µM
[15] = second compound 0.0316 µM, first compound 0.00949 µM
[16] = second compound 0.0316 µM, first compound 0.03 µM
[17] = second compound 0.0316 µM, first compound 0.0949 µM
[18] = second compound 0.0316 µM, first compound 0.3 µM
[19] = second compound 0.1 µM, first compound 0.000949 µM
[20] = second compound 0.1 µM, first compound 0.003 µM
[21] = second compound 0.1 µM, first compound 0.00949 µM
[22] = second compound 0.1 µM, first compound 0.03 µM
[23] = second compound 0.1 µM, first compound 0.0949 µM
[24] = second compound 0.1 µM, first compound 0.3 µM
[25] = second compound 0.316 µM, first compound 0.000949 µM
[26] = second compound 0.316 µM, first compound 0.003 µM
[27] = second compound 0.316 µM, first compound 0.00949 µM
[28] = second compound 0.316 µM, first compound 0.03 µM
[29] = second compound 0.316 µM, first compound 0.0949 µM
[30] = second compound 0.316 µM, first compound 0.3 µM
[31] = second compound 1 µM, first compound 0.000949 µM
[32] = second compound 1 µM, first compound 0.003 µM
[33] = second compound 1 µM, first compound 0.00949 µM
[34] = second compound 1 µM, first compound 0.03 µM
[35] = second compound 1 µM, first compound 0.0949 µM
[36] = second compound 1 µM, first compound 0.3 µM

CC1(C)CCC(Nc2ncc(C(F)(F)F)c(-c3c[nH]c4c(P(C)(C)=O)c(C#N)ccc34)n2)CN1 (centres undefined) + C=CC(=O)N1CCN(c2nc(OCC3CCCN3C)nc3c(F)c(-c4nc(N)cc(C)c4C(F)(F)F)c(Cl)cc23)C(C)C1
IC50 (second compound 0.00316 µM): 1.11 nM | IC50 (second compound 0.01 µM): < 0.949 nM | IC50 (second compound 0.0316 µM): < 0.949 nM | IC50 (second compound 0.1 µM): < 0.949 nM | IC50 (second compound 0.316 µM): < 0.949 nM | IC50 (second compound 1 µM): < 0.949 nM | viability, T/C [1]: 50.9% | viability, T/C [2]: 41.2% | viability, T/C [3]: 37% | viability, T/C [4]: 25.2% | viability, T/C [5]: 26.9% | viability, T/C [6]: 27.6% | viability, T/C [7]: 36.5% | viability, T/C [8]: 38.3% | viability, T/C [9]: 24.9% | viability, T/C [10]: 24% | viability, T/C [11]: 22.5% | viability, T/C [12]: 20% | viability, T/C [13]: 33.6% | viability, T/C [14]: 27.2% | viability, T/C [15]: 23.2% | viability, T/C [16]: 21% | viability, T/C [17]: 21.2% | viability, T/C [18]: 18.2% | viability, T/C [19]: 29.8% | viability, T/C [20]: 28.9% | viability, T/C [21]: 23.1% | viability, T/C [22]: 21.3% | viability, T/C [23]: 19.2% | viability, T/C [24]: 19.4% | viability, T/C [25]: 30.1% | viability, T/C [26]: 30.4% | viability, T/C [27]: 24.1% | viability, T/C [28]: 20.7% | viability, T/C [29]: 20.6% | viability, T/C [30]: 19.5% | viability, T/C [31]: 29.3% | viability, T/C [32]: 28.7% | viability, T/C [33]: 27.5% | viability, T/C [34]: 22.4% | viability, T/C [35]: 23.6% | viability, T/C [36]: 20.5%

CCc1c2c(nc3ccc(O)cc13)-c1cc3c(c(=O)n1C2)COC(=O)[C@]3(O)CC + C=CC(=O)N1CCN(c2nc(OCC3CCCN3C)nc3c(F)c(-c4nc(N)cc(C)c4C(F)(F)F)c(Cl)cc23)C(C)C1
IC50 (second compound 0.00316 µM): < 0.949 nM | IC50 (second compound 0.01 µM): < 0.949 nM | IC50 (second compound 0.0316 µM): < 0.949 nM | IC50 (second compound 0.1 µM): < 0.949 nM | IC50 (second compound 0.316 µM): < 0.949 nM | IC50 (second compound 1 µM): < 0.949 nM | viability, T/C [1]: 41.6% | viability, T/C [2]: 33.6% | viability, T/C [3]: 11.7% | viability, T/C [4]: 3.8% | viability, T/C [5]: 2.71% | viability, T/C [6]: 2.26% | viability, T/C [7]: 40.6% | viability, T/C [8]: 26% | viability, T/C [9]: 8.37% | viability, T/C [10]: 3.98% | viability, T/C [11]: 2.14% | viability, T/C [12]: 1.54% | viability, T/C [13]: 33.3% | viability, T/C [14]: 22.2% | viability, T/C [15]: 9.5% | viability, T/C [16]: 4.43% | viability, T/C [17]: 2.52% | viability, T/C [18]: 1.84% | viability, T/C [19]: 32.5% | viability, T/C [20]: 19.6% | viability, T/C [21]: 6.47% | viability, T/C [22]: 3.28% | viability, T/C [23]: 2.14% | viability, T/C [24]: 2.49% | viability, T/C [25]: 27.8% | viability, T/C [26]: 17.5% | viability, T/C [27]: 7.44% | viability, T/C [28]: 3.62% | viability, T/C [29]: 2.47% | viability, T/C [30]: 3.05% | viability, T/C [31]: 25.9% | viability, T/C [32]: 21.2% | viability, T/C [33]: 8.12% | viability, T/C [34]: 4.94% | viability, T/C [35]: 2.44% | viability, T/C [36]: 2.51%
